Results on 6 molecules are retold here after patent US20240343722A1 (VIFOR (INTERNATIONAL) AG, priority 2021, published 2024).

pEC50, pIC50: −log10 of the molar value.

The target of the first assay is T1, ferroportin (Fpn) (Homo sapiens, UniProt Q9NP59).
T1 construct: expressed in transfected cells; host or cells: HEK-293 cell line #354 (derivative of HEK-293 Tet-ON Advanced)
T1 sequence (Q9NP59 1-571): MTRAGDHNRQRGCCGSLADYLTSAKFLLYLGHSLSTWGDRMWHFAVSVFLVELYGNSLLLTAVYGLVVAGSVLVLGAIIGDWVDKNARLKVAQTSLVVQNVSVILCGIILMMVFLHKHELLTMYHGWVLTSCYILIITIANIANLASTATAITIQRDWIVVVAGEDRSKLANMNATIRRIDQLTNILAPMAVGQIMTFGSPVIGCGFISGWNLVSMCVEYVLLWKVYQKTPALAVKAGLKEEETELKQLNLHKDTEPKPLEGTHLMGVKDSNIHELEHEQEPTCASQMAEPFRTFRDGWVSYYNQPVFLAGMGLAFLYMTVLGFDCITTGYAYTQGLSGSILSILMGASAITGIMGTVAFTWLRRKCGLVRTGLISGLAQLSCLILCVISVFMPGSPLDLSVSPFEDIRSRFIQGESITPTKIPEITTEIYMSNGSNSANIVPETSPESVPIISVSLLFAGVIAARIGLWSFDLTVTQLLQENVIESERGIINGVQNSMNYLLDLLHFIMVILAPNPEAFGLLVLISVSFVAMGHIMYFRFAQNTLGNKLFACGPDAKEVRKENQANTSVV
Description: Inhibition of Ferroportin mediated Iron Export Activity in an Iron Response Assay (BLA reporter, HEK-293 cell line #354). Type of assay: cell-based. To be noted: HEK-293 cell line #354, BLA reporter blue/green fluorescence ratio, n=37; read-out: EC50 of hepcidin in the iron response assay. The text has this:
Intracellular iron levels are indirectly measured in this assay by monitoring the activity of a beta-lactamase (BLA) reporter gene fused to the human ferritin promoter and the associated iron regulatory element (IRE) contained within the 5′ untranslated region of the ferritin mRNA. Expression of ferroportin (Fpn) in such a cell line leads to iron efflux and lower iron levels as reflected by lower activity of the reporter gene. On the other hand, inhibition of Fpn-mediated iron efflux results in elevated cellular iron levels which is detected as increased reporter gene activity.
By pEC50 is commonly meant the negative decadic logarithm of the EC50, by convention in mol/L. For `CC[C@H](C)[C@@H]1NC(=O)[C@@H](NC(=O)[C@@H](NC(=O)[C@@H]2CCCN2C(=O)[C@H](Cc2ccccc2)NC(=O)[C@H](Cc2c[nH]cn2)NC(=O)[C@@H](NC(=O)[C@@H](N)CC(=O)O)[C@@H](C)O)[C@@H](C)CC)CSSC[C@@H](C(=O)N[C@@H](CCCCN)C(=O)N[C@H](C(=O)O)[C@@H](C)O)NC(=O)[C@@H]2CSSC[C@@H]3NC(=O)[C@@H]4CSSC[C@H](NC(=O)[C@H](Cc5ccccc5)NC1=O)C(=O)N[C@@H](CSSC[C@H](NC(=O)[C@H](CCCCN)NC(=O)[C@H](CO)NC(=O)[C@H](CCCNC(=N)N)NC(=O)[C@H](Cc1c[nH]cn1)NC3=O)C(=O)NCC(=O)N[C@@H](CCSC)C(=O)N2)C(=O)NCC(=O)N4` [hepcidin], the pEC50 is about 7.02.

In the next assay the target is T2, ferroportin (Fpn) (Mus musculus, UniProt Q9JHI9).
T2 construct: endogenous in cells; host or cells: J774 mouse macrophage cell line, induced with Fe(III)NTA
T2 sequence (Q9JHI9 1-570): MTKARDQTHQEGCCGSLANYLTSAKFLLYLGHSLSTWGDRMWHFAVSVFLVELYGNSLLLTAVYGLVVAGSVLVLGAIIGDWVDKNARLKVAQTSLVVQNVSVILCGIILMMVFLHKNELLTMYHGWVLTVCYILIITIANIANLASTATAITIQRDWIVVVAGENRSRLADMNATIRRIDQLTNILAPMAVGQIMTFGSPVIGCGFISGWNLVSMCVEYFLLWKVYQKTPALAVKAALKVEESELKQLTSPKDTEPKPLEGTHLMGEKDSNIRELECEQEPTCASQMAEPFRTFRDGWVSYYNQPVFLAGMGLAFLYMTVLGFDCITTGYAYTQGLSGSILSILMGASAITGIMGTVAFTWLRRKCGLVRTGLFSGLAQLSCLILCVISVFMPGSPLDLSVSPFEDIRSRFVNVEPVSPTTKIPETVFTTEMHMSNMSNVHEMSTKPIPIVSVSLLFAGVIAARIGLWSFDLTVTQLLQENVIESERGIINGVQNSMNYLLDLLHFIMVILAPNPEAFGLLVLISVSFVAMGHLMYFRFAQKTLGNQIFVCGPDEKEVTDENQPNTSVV
Description: Hepcidin Internalization Assay (J774). Format: cell-based. To be noted: Average (AVE) IC50 of multiple measurements; inhibition of TMR-hepcidin (25 nM) internalization into J774 cells. The procedure, abridged: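 Mouse J774 cells; Fpn inhibition read as reduced internalization of TMR-labelled hepcidin, imaged by fluorescence microscopy with Hoechst 33342 co-stain after fixation. IC50 from Sum(Mean) TMR signal fitted to three- or four-parameter log(inhibitor) vs. response, whichever fit better.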
A word on the pIC50: it is −log10 of the IC50, conventionally taken in molar units. Molecule `CCCCn1c(CCNCCc2nc(C(=O)NCc3ncccc3F)co2)nc2cc(OC)c(OC)cc21` [Example 87, 2-(2-((2-(1-butyl-5,6-dimethoxy-1 H-benzo[d]imidazol-2-yl)ethyl)amino)ethyl)-N-((3-fluoropyridin-2-yl)methyl)oxazole-4-carboxamide] had a pIC50 of 7.77.
Same read-out and setting: the result for `CCCCn1c(C2(CNCCc3nc(C(=O)NCc4ncccc4F)co3)CCCCC2)nc2ccccc21` [Example 61, 2-(2-(((1-(1-butyl-1H-benzo[d]imidazol-2-yl)cyclohexyl)methyl)amino)ethyl)-N-((3-fluoropyridin-2-yl)methyl)oxazole-4-carboxamide] reads 5.84; that for `CCCCn1c(CCNCCc2nc(C(=O)NCc3ncccc3OC)co2)nc2ccccc21` [Example 46, 2-(2-((2-(1-butyl-1 H-benzo[d]imidazol-2-yl)ethyl)amino)ethyl)-N-((3-methoxypyridin-2-yl)methyl)oxazole-4-carboxamide], 9.00.
The same measure, in the same setting: the result for `CCCCn1c(CCNCCc2nc(C(=O)NCc3ncccc3F)co2)nc2cc(-c3ccccc3OC)ccc21` [Example 39, 2-(2-((2-(1-butyl-5-(2-methoxyphenyl)-1 H-benzo[d]imidazol-2-yl)ethyl)amino)ethyl)-N-((3-fluoropyridin-2-yl)methyl)oxazole-4-carboxamide] reads 8.77.
The same measure, in the same setting: the result for `O=C(NCc1ncccc1F)c1coc(CCNCCc2nc3ccccc3n2CCC2CC2)n1` [Example 21, 2-(2-((2-(1-(2-cyclopropylethyl)-1 H-benzo[d]imidazol-2-yl)ethyl)amino)ethyl)-N-((3-fluoropyridin-2-yl)methyl)oxazole-4-carboxamide] reads 9.00.
